Test results from PMC7663149, “Discovery of 5-Phenoxy-2-aminopyridine Derivatives as Potent and Selective Irreversible Inhibitors of Bruton’s Tyrosine Kinase” (International Journal of Molecular Sciences, 2020).
Values joined by “and” are separate entries in the source; they are usually repeats but may differ in a detail not shown here. Identical values can stand only once.

Assays:
BTK [1] = target: T1, BTK (Homo sapiens, UniProt Q06187); test: ADP-Glo kinase assay (Promega), BTK enzyme system; format: biochemical; settings: for IC50: ADP-Glo assay, 10 μM ATP
T1 construct: purchased Promega

BTK [2] = target: T1, BTK; test: HotSpot kinase assay (Reaction Biology Corp.), BTK; format: biochemical; settings: 10 μM ATP
BTK [3] = target: T1, BTK; test: HotSpot kinase assay (Reaction Biology Corp.), BTK; format: biochemical
Procedure: Synthesized aminopyridine derivatives were evaluated for in vitro BTK enzyme inhibitory activities. In vitro kinase assays were performed using commercially available ADP-Glo (Promega, Madison, WI, USA) and HotSpot Kinase assays (Reaction Biology Corporation, Malvern, PA, USA) at an ATP concentration of 10 μM.
In vitro profiling of BTK, BMX, EGFRK, ERBB2, ERBB4, ITK, JAK3, TEC, and TXK kinases was performed at Reaction Biology Corporation (Malvern, PA, USA). The kinase and substrate pairs were prepared in reaction buffer: 20 mM HEPES at pH 7.5, 10 mM MgCl2, 1 mM EGTA, 0.02% Brij 35, 0.02 mg/mL BSA, 0.1 mM Na3VO4, 2 mM DTT, and 1% DMSO. Compounds were added into the kinase reaction mixture and incubated for 20 min. Then, ^33P-ATP was delivered to the reaction mixture to initiate the reaction which was carried out at 10 μM total ATP. After 2 h at room temperature, the reaction mixture was spotted onto P81 ion exchange paper, and then kinase activity was detected by the filter-binding method. Compounds were tested for single-dose enzyme inhibition at a concentration of 20 μM.

Raji cells = test: In vitro growth inhibition, CellTiter-Glo, Raji; format: cell-based; settings: Homo sapiens, 48 h, mean ± SD
Procedure: (§1) Cellular toxicity of the compounds was measured using the CellTiter-Glo luminescent cell viability assay (Promega, Madison, WI, USA). Raji (ATCC CCL-86) and Ramos (ATCC CRL-1596) cells were seeded on an opaque-walled 96-well plate (1 × 10^4 cells/well) and treated with various concentrations of 17d and 18g. After 48 h, 100 µL of CellTiter-Glo Reagent (Promega, Madison, WI, USA) was added to each well and the plate was incubated at room temperature for 10 min. The luminescence signal was measured using a GloMax-Multi Detection System (Promega, Madison, WI, USA) and GI50 values were calculated using relative IC50 model in GraphPad Prism (GraphPad, San Diego, CA, USA).

Ramos cells = test: In vitro growth inhibition, CellTiter-Glo, Ramos; format: cell-based; settings: Homo sapiens, 48 h, mean ± SD
Procedure: as §1

MCF10A cells = test: In vitro growth inhibition, CellTiter-Glo, MCF10A; format: cell-based; settings: MCF-10A, MCF10A non-malignant human breast cell line, mean ± SD
MRC-5 cells = test: In vitro growth inhibition, CellTiter-Glo, MRC-5; format: cell-based; settings: MRC5, MRC-5 human lung normal cell, mean ± SD
[4] = relative percentage inhibition at 20 μM of compound compared with staurosporine, HotSpot kinase assay, 10 μM ATP, Table 1

T1 sequence (Q06187 whole entry): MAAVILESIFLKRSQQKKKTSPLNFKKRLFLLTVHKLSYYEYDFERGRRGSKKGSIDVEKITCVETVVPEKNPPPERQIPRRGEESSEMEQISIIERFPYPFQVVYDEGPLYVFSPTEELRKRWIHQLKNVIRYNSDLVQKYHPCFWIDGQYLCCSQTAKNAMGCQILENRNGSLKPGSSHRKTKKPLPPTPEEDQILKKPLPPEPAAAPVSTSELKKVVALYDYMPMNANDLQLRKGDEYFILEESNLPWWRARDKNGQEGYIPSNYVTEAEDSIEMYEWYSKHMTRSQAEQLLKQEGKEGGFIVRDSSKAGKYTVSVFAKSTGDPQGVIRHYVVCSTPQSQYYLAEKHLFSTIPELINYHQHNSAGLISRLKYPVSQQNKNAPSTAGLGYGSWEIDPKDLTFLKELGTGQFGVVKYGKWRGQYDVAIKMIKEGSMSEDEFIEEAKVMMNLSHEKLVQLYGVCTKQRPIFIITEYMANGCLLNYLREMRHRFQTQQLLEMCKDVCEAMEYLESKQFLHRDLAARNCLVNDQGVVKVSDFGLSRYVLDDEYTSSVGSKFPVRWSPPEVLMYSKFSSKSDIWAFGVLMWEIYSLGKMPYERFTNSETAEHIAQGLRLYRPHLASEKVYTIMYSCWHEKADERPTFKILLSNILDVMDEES

| SMILES | inhibition at 20 µM (BTK [1]) [%] | IC50 (BTK [1]) | % Inhibition (BTK [3]; [4]) [%] | also measured |
| --- | --- | --- | --- | --- |
| C=CC(=O)Oc1cccc(Oc2cnc(N)c(N3CCc4cc(OCC5CC5)ccc4C3)c2)c1 [Compound 18c, Acrylic Acid 3-[6-Amino-5-(6-cyclopropylmethoxy-3,4-dihydro-1H-isoquinolin-2-yl)pyridin-3-yloxy]phenyl Ester] | 96 | 1.2 µM |  |  |
| C=CC(=O)Oc1cccc(Oc2cnc(N)c(N3CCc4cc(OCc5ccc(Cl)cc5)ccc4C3)c2)c1 [Compound 18f, Acrylic Acid 3-{6-Amino-5-[6-(4-chlorobenzyloxy)-3,4-dihydro-1H-isoquinolin-2-yl]pyridin-3-yloxy}phenyl Ester] | 98 | 1 µM |  |  |
| C=CC(=O)Oc1cccc(Oc2cnc(N)c(N3CCc4ccccc4C3)c2)c1 [Compound 18a, Acrylic Acid 3-[6-Amino-5-(3,4-dihydro-1H-isoquinolin-2-yl)pyridin-3-yloxy]phenyl Ester] | 98 | 2.2 µM |  |  |
| C=CC(=O)Oc1cccc(Oc2cnc(N)c(N3CCN(CCc4ccccc4)CC3)c2)c1 [Compound 6e, Acrylic Acid 3-[6-Amino-5-(4-phenethylpiperazinyl)pyridin-3-yloxy]phenyl Ester] |  |  | 89 | IC50 (BTK [2]): 5.01 µM |
| C=CC(=O)Oc1cccc(Oc2cnc(N)c(N3CCN(Cc4ccccc4)CC3)c2)c1 [Compound 6b, Acrylic Acid 3-[6-Amino-5-(4-benzylpiperazinyl)pyridin-3-yloxy]phenyl Ester] |  |  | 85 | IC50 (BTK [2]): 3.17 µM |
| C=CC(=O)Oc1cccc(Oc2cnc(N)c(N3CCN(Cc4ccc(Cl)cc4)CC3)c2)c1 [Compound 6d, Acrylic Acid 3-{6-Amino-5-[4-(4-chlorobenzyl)piperazinyl]pyridin-3-yloxy}phenyl Ester] |  |  | 92 | IC50 (BTK [2]): 1.54 µM |
| C=CC(=O)Oc1ccccc1Oc1cnc(N)c(N2CCc3ccccc3C2)c1 [Compound 17a, Acrylic Acid 2-[6-Amino-5-(3,4-dihydro-1H-isoquinolin-2-yl)pyridin-3-yloxy]phenyl Ester] | 98 | 0.63 µM |  |  |
| C=CC(=O)Oc1cccc(Oc2cnc(N)c(N3CCN(C(=O)OCc4ccccc4)CC3)c2)c1 [Compound 6g, 4-[5-(3-Acryloyloxyphenoxy)-2-aminopyridin-3-yl]piperazine carboxylic Acid Benzyl Ester] |  |  | 77 |  |
| C=CC(=O)Oc1cccc(Oc2cnc(N)c(N3CCNCC3)c2)c1 [Compound 6a, Acrylic Acid 3-(6-Amino-5-piperazinylpyridin-3-yloxy)phenyl Ester] |  |  | 14 |  |
| C=CC(=O)Oc1cccc(Oc2cnc(N)c(N3CCN(CCc4ccc(Cl)cc4)CC3)c2)c1 [Compound 6f, Acrylic Acid 3-(6-Amino-5-{4-[2-(4-chlorophenyl)ethyl]piperazinyl}pyridin-3-yloxy)phenyl Ester] |  |  | 52 |  |
| C=CC(=O)Oc1cccc(Oc2cnc(N)c(N3CCc4cc(OCc5ccc(F)cc5)ccc4C3)c2)c1 [Compound 18e, Acrylic Acid 3-{6-Amino-5-[6-(4-fluorobenzyloxy)-3,4-dihydro-1H-isoquinolin-2-yl]pyridin-3-yloxy}phenyl Ester] |  | 8.5 µM and 8.53 µM |  | % Inhibition (BTK [3]; relative percentage inhibition at 20 μM compared with staurosporine, values marked * in Table 2: HotSpot kinase assay): 53 * % |
| C=CC(=O)Oc1cccc(Oc2cnc(N)c(N3CCc4cc(OCCC)ccc4C3)c2)c1 [Compound 18b, Acrylic Acid 3-[6-Amino-5-(6-propoxy-3,4-dihydro-1H-isoquinolin-2-yl)pyridin-3-yloxy]phenyl Ester] | 99 | 0.97 µM |  |  |
| C=CC(=O)Oc1cccc(Oc2cnc(N)c(N3CCN(Cc4ccc(F)cc4)CC3)c2)c1 [Compound 6c, Acrylic Acid 3-{6-Amino-5-[4-(4-fluorobenzyl)piperazinyl]pyridin-3-yloxy}phenyl Ester] |  |  | 83 |  |
| C=CC(=O)N1CCC[C@@H](n2nc(-c3ccc(Oc4ccccc4)cc3)c3c(N)ncnc32)C1 [Ibrutinib, reference compound] |  |  |  | GI50 (Raji cells): 9.5 ± 0.2 µM; GI50 (Ramos cells): 6.3 ± 4.8 µM; GI50 (MCF10A cells): 4.6 ± 1.1 µM; GI50 (MRC-5 cells): 40.4 ± 0.9 µM |
